Laboratory results taken from patent US20260224588A1, “BENZODIAZEPINONE-DERIVED INHIBITORS OF EGFR AND HER2” (The Research Foundation for the State University of New York, priority 2023, published 2026).

How the values were obtained:
Experiment in all cases: KINOMEscan
Assay type in all cases: binding
Conditions in all cases: 1 μM of compound 4; read-out: POC
MAP3K4 = MAP3K4 (Homo sapiens, UniProt Q9Y6R4)
TYRO3 = molecular target: T1, TYRO3 (Homo sapiens, UniProt Q06418)
T1 construct: purchased Eurofins DiscoverX

PKAC-alpha = PKAC-alpha (Homo sapiens, UniProt P17612)
AKT2 = AKT2 (Homo sapiens, UniProt P31751)
ITK = ITK (Homo sapiens, UniProt Q08881)
ERK5 = molecular target: T2, ERK5 (Homo sapiens, UniProt Q13164)
T2 construct: purchased Eurofins DiscoverX Corporation

FLT4 = molecular target: T3, FLT4 (Homo sapiens, UniProt P35916)
T3 construct: purchased Eurofins DiscoverX Corporation

PRKD3 = PRKD3 (Homo sapiens, UniProt O94806)
HPK1 = molecular target: T4, HPK1 (Homo sapiens, UniProt Q92918)
T4 construct: purchased Eurofins DiscoverX Corporation

YANK3 = molecular target: T5, YANK3 (Homo sapiens, UniProt Q86UX6)
T5 construct: purchased Eurofins DiscoverX

BMX = BMX (Homo sapiens, UniProt P51813)
NEK5 = NEK5 (Homo sapiens, UniProt Q6P3R8)
Chain of NEK5 (Q6P3R8 whole entry): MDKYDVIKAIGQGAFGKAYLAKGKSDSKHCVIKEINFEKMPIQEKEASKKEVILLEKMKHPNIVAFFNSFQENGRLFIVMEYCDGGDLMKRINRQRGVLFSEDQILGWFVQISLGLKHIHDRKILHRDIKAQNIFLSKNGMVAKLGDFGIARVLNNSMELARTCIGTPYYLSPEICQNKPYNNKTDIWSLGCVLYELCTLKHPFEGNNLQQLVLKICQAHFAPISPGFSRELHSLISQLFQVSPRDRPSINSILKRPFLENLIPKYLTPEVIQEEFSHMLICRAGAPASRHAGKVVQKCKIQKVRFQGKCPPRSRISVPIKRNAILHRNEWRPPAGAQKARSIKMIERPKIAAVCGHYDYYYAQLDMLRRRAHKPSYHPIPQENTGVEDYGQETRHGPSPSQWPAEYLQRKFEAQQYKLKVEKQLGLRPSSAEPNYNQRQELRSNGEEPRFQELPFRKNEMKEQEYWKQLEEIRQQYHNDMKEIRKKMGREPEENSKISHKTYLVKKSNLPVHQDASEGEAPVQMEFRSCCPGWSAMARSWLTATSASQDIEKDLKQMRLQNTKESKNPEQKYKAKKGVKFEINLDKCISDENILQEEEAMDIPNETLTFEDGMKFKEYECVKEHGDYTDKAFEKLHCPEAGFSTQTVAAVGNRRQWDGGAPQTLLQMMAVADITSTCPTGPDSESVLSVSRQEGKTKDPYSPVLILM

FLT3-autoinhibited = molecular target: T6, FLT3-autoinhibited (Homo sapiens, UniProt P36888)
T6 construct: purchased Eurofins DiscoverX Corporation

PLK2 = PLK2 (Homo sapiens, UniProt Q9NYY3)
PIKFYVE = PIKFYVE (Homo sapiens, UniProt Q9Y2I7)
MEK5 = MEK5 (Homo sapiens, UniProt Q13163)
Chain of MEK5 (Q13163 whole entry): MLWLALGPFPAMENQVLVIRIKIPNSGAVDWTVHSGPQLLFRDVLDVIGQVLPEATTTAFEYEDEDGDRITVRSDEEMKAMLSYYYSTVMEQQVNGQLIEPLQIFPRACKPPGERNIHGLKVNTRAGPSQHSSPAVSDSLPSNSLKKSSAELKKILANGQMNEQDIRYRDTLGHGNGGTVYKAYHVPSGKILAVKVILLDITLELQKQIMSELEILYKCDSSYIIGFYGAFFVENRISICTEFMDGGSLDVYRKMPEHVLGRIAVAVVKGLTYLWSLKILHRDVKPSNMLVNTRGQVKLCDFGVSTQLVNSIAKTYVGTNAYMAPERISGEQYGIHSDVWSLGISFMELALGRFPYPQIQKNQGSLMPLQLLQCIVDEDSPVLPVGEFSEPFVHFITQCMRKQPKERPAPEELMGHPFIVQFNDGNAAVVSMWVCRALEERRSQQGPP

DCAMKL3 = DCAMKL3 (Homo sapiens, UniProt Q9C098)
CAMK1G = CAMK1G (Homo sapiens, UniProt Q96NX5)
PHKG1 = PHKG1 (Homo sapiens, UniProt Q16816)
MRCKB = MRCKB (Homo sapiens, UniProt Q9Y5S2)
Chain of MRCKB (Q9Y5S2 whole entry): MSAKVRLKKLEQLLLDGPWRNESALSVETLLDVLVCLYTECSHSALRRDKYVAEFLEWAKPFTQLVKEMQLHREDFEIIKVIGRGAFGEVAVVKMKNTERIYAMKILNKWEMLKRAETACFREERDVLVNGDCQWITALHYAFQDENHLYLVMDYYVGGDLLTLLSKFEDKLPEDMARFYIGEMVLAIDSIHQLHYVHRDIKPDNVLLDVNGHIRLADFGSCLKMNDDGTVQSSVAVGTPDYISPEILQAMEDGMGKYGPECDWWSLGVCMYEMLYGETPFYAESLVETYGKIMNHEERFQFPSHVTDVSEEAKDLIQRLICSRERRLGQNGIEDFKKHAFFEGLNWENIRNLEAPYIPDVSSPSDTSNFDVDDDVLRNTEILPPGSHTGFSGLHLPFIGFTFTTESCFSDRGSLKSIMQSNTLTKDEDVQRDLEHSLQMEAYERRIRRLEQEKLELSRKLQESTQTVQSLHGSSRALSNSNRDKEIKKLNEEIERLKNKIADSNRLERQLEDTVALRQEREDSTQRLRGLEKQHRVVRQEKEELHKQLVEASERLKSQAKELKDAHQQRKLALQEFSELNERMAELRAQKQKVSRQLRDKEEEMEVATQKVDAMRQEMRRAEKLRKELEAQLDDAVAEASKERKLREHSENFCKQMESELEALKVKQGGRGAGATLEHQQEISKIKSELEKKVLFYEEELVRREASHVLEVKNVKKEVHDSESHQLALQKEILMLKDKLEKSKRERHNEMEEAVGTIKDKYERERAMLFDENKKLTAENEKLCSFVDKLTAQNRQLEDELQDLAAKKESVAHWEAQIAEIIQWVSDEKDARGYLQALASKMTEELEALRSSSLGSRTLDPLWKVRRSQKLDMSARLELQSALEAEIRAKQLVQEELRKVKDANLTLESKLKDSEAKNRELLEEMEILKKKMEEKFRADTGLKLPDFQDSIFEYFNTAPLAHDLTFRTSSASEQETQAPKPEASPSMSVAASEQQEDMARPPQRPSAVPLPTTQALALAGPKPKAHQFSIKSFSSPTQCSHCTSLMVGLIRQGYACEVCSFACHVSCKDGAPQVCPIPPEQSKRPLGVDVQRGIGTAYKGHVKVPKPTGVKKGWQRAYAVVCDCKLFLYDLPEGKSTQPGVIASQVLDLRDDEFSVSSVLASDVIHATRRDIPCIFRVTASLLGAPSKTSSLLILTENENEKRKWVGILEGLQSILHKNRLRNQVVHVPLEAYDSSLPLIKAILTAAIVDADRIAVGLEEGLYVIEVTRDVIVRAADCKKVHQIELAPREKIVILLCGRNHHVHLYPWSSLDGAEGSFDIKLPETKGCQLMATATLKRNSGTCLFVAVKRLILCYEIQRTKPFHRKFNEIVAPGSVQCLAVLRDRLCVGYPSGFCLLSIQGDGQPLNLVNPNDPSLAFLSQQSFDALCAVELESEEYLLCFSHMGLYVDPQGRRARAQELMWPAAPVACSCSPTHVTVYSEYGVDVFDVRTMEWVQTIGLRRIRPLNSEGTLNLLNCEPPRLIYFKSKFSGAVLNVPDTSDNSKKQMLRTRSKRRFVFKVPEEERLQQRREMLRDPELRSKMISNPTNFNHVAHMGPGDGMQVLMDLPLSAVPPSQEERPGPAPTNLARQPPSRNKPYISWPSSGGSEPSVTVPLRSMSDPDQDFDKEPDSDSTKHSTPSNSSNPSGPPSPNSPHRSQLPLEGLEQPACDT

FGFR3(G697C) = molecular target: T7, FGFR3(G697C) (Homo sapiens, UniProt P22607, G697C)
T7 construct: purchased Eurofins DiscoverX Corporation

ROCK1 = molecular target: T8, ROCK1 (Homo sapiens, UniProt Q13464)
T8 construct: purchased Eurofins DiscoverX Corporation (KINOMEscan screening service)

DRAK1 = DRAK1 (Homo sapiens, UniProt Q9UEE5)
MARK1 = MARK1 (Homo sapiens, UniProt Q9P0L2)
ARK5 = ARK5 (Homo sapiens, UniProt O60285)
IKK-alpha = IKK-alpha (Homo sapiens, UniProt O15111)
NIM1 = molecular target: T9, NIM1 (Homo sapiens, UniProt Q8IY84)
T9 construct: purchased Eurofins DiscoverX Corporation (KINOMEscan)

MELK = MELK (Homo sapiens, UniProt Q14680)
ICK = ICK (Homo sapiens, UniProt Q9UPZ9)
Chain of ICK (Q9UPZ9 whole entry): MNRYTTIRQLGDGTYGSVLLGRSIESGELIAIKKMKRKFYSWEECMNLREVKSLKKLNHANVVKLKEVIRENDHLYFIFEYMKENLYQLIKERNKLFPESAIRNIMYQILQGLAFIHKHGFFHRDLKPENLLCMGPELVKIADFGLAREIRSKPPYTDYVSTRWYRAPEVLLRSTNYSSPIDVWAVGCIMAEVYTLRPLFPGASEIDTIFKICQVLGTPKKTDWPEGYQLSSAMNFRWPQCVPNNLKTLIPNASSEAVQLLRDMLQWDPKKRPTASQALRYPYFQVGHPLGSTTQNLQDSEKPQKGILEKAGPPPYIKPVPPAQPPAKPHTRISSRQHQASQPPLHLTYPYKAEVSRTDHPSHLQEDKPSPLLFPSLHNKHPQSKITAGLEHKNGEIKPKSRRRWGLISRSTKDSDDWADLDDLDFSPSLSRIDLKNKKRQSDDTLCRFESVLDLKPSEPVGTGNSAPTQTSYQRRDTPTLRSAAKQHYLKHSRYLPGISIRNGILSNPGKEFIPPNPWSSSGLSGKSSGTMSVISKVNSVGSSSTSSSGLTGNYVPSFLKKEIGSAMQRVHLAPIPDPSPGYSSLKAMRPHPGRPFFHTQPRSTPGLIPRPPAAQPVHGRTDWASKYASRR

MYLK4 = MYLK4 (Homo sapiens, UniProt Q86YV6)
AURKB = AURKB (Homo sapiens, UniProt Q96GD4)
FAK = molecular target: T10, FAK (Homo sapiens, UniProt Q05397)
T10 construct: purchased Eurofins DiscoverX Corporation
T10 sequence (Q05397 whole entry): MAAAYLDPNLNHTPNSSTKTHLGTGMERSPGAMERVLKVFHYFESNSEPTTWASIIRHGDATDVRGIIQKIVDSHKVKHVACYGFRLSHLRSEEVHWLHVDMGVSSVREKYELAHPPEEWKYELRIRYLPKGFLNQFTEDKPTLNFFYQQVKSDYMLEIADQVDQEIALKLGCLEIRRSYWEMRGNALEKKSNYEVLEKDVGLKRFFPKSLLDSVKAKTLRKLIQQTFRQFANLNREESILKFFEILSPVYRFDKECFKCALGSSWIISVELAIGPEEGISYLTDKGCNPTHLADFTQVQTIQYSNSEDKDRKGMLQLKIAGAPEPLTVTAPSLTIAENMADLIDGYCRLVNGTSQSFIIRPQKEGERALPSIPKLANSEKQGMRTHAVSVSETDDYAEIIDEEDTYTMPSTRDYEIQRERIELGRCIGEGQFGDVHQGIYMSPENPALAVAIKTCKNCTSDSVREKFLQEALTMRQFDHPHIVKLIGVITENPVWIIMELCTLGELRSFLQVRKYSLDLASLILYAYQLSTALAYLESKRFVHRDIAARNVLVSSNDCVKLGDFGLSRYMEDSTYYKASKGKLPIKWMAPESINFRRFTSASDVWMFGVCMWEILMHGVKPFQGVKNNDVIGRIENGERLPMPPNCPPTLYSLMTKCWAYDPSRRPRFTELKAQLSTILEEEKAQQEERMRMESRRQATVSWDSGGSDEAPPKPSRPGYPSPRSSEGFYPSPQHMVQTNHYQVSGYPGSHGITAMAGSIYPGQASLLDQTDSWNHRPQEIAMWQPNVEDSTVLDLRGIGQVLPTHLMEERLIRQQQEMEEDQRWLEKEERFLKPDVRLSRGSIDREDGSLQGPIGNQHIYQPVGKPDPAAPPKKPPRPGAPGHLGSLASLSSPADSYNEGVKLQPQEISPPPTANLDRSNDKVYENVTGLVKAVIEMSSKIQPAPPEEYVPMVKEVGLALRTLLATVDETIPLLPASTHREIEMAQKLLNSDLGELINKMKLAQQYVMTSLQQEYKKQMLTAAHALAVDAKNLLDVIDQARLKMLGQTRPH

PIK3CA(H1047L) = PIK3CA(H1047L) (Homo sapiens, UniProt P42336, H1047L)
PIK3C2B = PIK3C2B (Homo sapiens, UniProt O00750)
AMPK-alpha1 = AMPK-alpha1 (Homo sapiens, UniProt Q13131)
ACVR1B = molecular target: T11, ACVR1B (Homo sapiens, UniProt P36896)
T11 construct: purchased Eurofins DiscoverX Corporation
T11 sequence (P36896 24-505): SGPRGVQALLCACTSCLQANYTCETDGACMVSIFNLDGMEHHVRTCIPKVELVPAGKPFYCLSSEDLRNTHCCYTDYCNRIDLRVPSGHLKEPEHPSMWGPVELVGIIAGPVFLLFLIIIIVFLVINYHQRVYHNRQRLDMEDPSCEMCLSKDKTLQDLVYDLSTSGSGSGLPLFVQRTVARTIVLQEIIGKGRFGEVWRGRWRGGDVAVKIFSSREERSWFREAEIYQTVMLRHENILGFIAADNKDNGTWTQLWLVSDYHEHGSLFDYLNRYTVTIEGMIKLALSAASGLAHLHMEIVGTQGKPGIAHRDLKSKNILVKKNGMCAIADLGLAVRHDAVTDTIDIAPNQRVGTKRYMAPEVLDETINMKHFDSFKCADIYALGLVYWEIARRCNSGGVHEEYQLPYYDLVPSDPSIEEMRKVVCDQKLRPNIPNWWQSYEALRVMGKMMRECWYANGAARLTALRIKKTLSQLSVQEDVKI

CASK = CASK (Homo sapiens, UniProt O14936)
PIK3C2G = PIK3C2G (Homo sapiens, UniProt O75747)
LCK = LCK (Homo sapiens, UniProt P06239)
CDK3 = CDK3 (Homo sapiens, UniProt Q00526)

SMILES: C=CC(=O)Nc1ccc(OC)c(Nc2cc(-c3[nH]c(CC)nc3-c3cccc(NC(=O)c4cccc5c4NC(=O)c4ccccc4N5)c3)ccn2)c1 [Compound 4, N-(3-(5-(2-((5-Acrylamido-2-methoxyphenyl)amino)pyridin-4-yl)-2-ethyl-1H-imidazol-4-yl)phenyl)-11-oxo-10,11-dihydro-5H-dibenzo[b,e][1,4]diazepine-9-carboxamide]
- remaining binding at 1 µM (MAP3K4): 100%
- remaining binding at 1 µM (TYRO3): 32%
- remaining binding at 1 µM (PKAC-alpha): 100%
- remaining binding at 1 µM (AKT2): 91%
- remaining binding at 1 µM (ITK): 87%
- remaining binding at 1 µM (ERK5): 100%
- remaining binding at 1 µM (FLT4): 100%
- remaining binding at 1 µM (PRKD3): 67%
- remaining binding at 1 µM (HPK1): 45%
- remaining binding at 1 µM (YANK3): 96%
- remaining binding at 1 µM (BMX): 66%
- remaining binding at 1 µM (NEK5): 100%
- remaining binding at 1 µM (FLT3-autoinhibited): 100%
- remaining binding at 1 µM (PLK2): 100%
- remaining binding at 1 µM (PIKFYVE): 94%
- remaining binding at 1 µM (MEK5): 41%
- remaining binding at 1 µM (DCAMKL3): 86%
- remaining binding at 1 µM (CAMK1G): 100%
- remaining binding at 1 µM (PHKG1): 96%
- remaining binding at 1 µM (MRCKB): 1.7%
- remaining binding at 1 µM (FGFR3(G697C)): 100%
- remaining binding at 1 µM (ROCK1): 100%
- remaining binding at 1 µM (DRAK1): 84%
- remaining binding at 1 µM (MARK1): 92%
- remaining binding at 1 µM (ARK5): 100%
- remaining binding at 1 µM (IKK-alpha): 100%
- remaining binding at 1 µM (NIM1): 78%
- remaining binding at 1 µM (MELK): 100%
- remaining binding at 1 µM (ICK): 100%
- remaining binding at 1 µM (MYLK4): 95%
- remaining binding at 1 µM (AURKB): 100%
- remaining binding at 1 µM (FAK): 99%
- remaining binding at 1 µM (PIK3CA(H1047L)): 100%
- remaining binding at 1 µM (PIK3C2B): 74%
- remaining binding at 1 µM (AMPK-alpha1): 81%
- remaining binding at 1 µM (ACVR1B): 85%
- remaining binding at 1 µM (CASK): 97%
- remaining binding at 1 µM (PIK3C2G): 50%
- remaining binding at 1 µM (LCK): 7.7%
- remaining binding at 1 µM (CDK3): 100%
